Results reported in patent publication US12138256B2, “Treatment of cardiopulmonary disorders” (Bayer Aktiengesellschaft, priority 2021, dated 2024).

Tested on: sGC (cGMP)
Test: Phase I, healthy male subjects, 7 days once daily inhalation: cGMP in blood samples (C-4.1)
Format: in vivo, human
Description: Healthy White male subjects, aged 18 to 45 years and with a body mass index (BMI) above/equal 18.5 and below/equal 29.9 kg/m2 were treated in a clinical pharmacological phase I study on seven days with inhaled once daily doses of 480 μg or 1000 μg or 2000 μg (2 capsules of 1000 μg) (nominal dose) of dry powder formulations of example 2 or Placebo. The subjects inhaled the drug powder from capsules (see under D-1, e.g. tables 22 and 23) inserted into a handheld inhalation device by one deep inhalative breath. The dry powder formulation of the drug is dispersed into the airstream and fine particles are transported into the deep parts of the lung where it is intended to cause a vasodilation of the blood vessels in PH patients for a substantial reduction of increased blood pressure in the central pulmonary blood vessels in PAH patients or other subtypes of PH. This effect cannot be shown in subjects with healthy lungs. In addition inhaled drug causes a dilation of the bronchial airways and thus also improves disease states of lung diseases in PH patients with pathological bronchoconstriction. This effect was measured via bodyplethysmography as reduction of Specific Airway Resistance in healthy subjects. After the deep inhalative breath the subjects hold breath for 2 seconds, so that the dry powder drug condenses from the airstream onto the surface of the deeper lung areas where it is deposited close to its site of intended pharmacological action. The drug dissolutes over the day and equilibrates the lung via lining fluid.
Drug activity in healthy men was controlled in the healthy subjects by analysing blood samples for cGMP, the immediate product of sGC pharmacological activation prior after the first and after the last drug inhalation of the 7 days treatment in comparison to measurements on the pretreatment day for all doses.
This prolonged activity in comparison to systemic drug concentration is caused by the mode of administration as inhaled dry powder, that deposits drug in the deeper part of the lung leading to an active drug concentration over 24 h after a once daily inhalation.
At 10 days after the first treatment, mean cGMP concentrations had returned close to the concentration observed at the pre-dosing day.

O=C(O)c1ccc(CCN(CCc2ccccc2OCc2ccc(-c3ccc(C(F)(F)F)cc3)cc2Cl)[C@H]2CCCc3nc(C(=O)O)ccc32)cc1 [example 2, (5S)-{[2-(4-Carboxyphenyl)ethyl][2-(2-{[3-chloro-4′-(trifluoromethyl)biphenyl-4-yl]methoxy}phenyl)-ethyl]amino}-5,6,7,8-tetrahydroquinoline-2-carboxylic acid]
cyclic guanosine monophosphate changes from baseline (480 μg once daily inhaled, 0 D 02 H 00 M): 1.73 ± 0.82 nmol/L
cyclic guanosine monophosphate changes from baseline (480 μg once daily inhaled, 0 D 04 H 00 M): 3.04 ± 1.39 nmol/L
cyclic guanosine monophosphate changes from baseline (480 μg once daily inhaled, 0 D 06 H 00 M): 3.33 ± 1.39 nmol/L
cyclic guanosine monophosphate changes from baseline (480 μg once daily inhaled, 0 D 08 H 00 M): 2.94 ± 1.38 nmol/L
cyclic guanosine monophosphate changes from baseline (480 μg once daily inhaled, 0 D 12 H 00 M): 2.10 ± 1.18 nmol/L
cyclic guanosine monophosphate changes from baseline (480 μg once daily inhaled, 0 D 15 H 00 M): 1.53 ± 1.50 nmol/L
cyclic guanosine monophosphate changes from baseline (480 μg once daily inhaled, 1 D 00 H 00 M): 0.84 ± 0.89 nmol/L
cyclic guanosine monophosphate changes from baseline (480 μg once daily inhaled, 2 D 00 H 00 M): 0.74 ± 1.59 nmol/L
cyclic guanosine monophosphate changes from baseline (480 μg once daily inhaled, 3 D 00 H 00 M): 1.00 ± 1.92 nmol/L
cyclic guanosine monophosphate changes from baseline (480 μg once daily inhaled, 4 D 00 H 00 M): 1.46 ± 1.24 nmol/L
cyclic guanosine monophosphate changes from baseline (480 μg once daily inhaled, 5 D 00 H 00 M): 1.50 ± 0.98 nmol/L
cyclic guanosine monophosphate changes from baseline (480 μg once daily inhaled, 6 D 00 H 00 M): 1.92 ± 1.21 nmol/L
cyclic guanosine monophosphate changes from baseline (480 μg once daily inhaled, 7 D 00 H 00 M): 1.68 ± 0.85 nmol/L
cyclic guanosine monophosphate changes from baseline (480 μg once daily inhaled, 7 D 02 H 00 M): 4.22 ± 2.29 nmol/L
cyclic guanosine monophosphate changes from baseline (480 μg once daily inhaled, 7 D 04 H 00 M): 5.39 ± 2.34 nmol/L
cyclic guanosine monophosphate changes from baseline (480 μg once daily inhaled, 7 D 06 H 00 M): 6.44 ± 2.26 nmol/L
cyclic guanosine monophosphate changes from baseline (480 μg once daily inhaled, 7 D 08 H 00 M): 5.19 ± 1.64 nmol/L
cyclic guanosine monophosphate changes from baseline (480 μg once daily inhaled, 7 D 12 H 00 M): 3.71 ± 1.79 nmol/L
cyclic guanosine monophosphate changes from baseline (480 μg once daily inhaled, 7 D 15 H 00 M): 3.04 ± 2.09 nmol/L
cyclic guanosine monophosphate changes from baseline (480 μg once daily inhaled, 8 D 00 H 00 M): 1.69 ± 2.65 nmol/L
cyclic guanosine monophosphate changes from baseline (480 μg once daily inhaled, 8 D 12 H 00 M): 0.69 ± 1.53 nmol/L
cyclic guanosine monophosphate changes from baseline (480 μg once daily inhaled, 9 D 00 H 00 M): 0.13 ± 1.97 nmol/L
cyclic guanosine monophosphate changes from baseline (480 μg once daily inhaled, 9 D 12 H 00 M): 1.10 ± 1.01 nmol/L
cyclic guanosine monophosphate changes from baseline (480 μg once daily inhaled, 10 D 00 H 00 M): -0.00 ± 0.64 nmol/L
cyclic guanosine monophosphate changes from baseline (480 μg, 0 D 00 H 00 M): 0.11 ± 1.10 nmol/L
cGMP, mean ± SD (480 μg, 0 D 00 H 00 M (baseline)): 5.51 ± 1.00 nmol/L
cGMP, mean ± SD (480 μg, 0 D 02 H 00 M): 7.24 ± 1.25 nmol/L
cGMP, mean ± SD (480 μg, 0 D 04 H 00 M): 8.56 ± 1.45 nmol/L
cGMP, mean ± SD (480 μg, 0 D 06 H 00 M): 8.84 ± 1.35 nmol/L
cGMP, mean ± SD (480 μg, 0 D 08 H 00 M): 8.46 ± 1.59 nmol/L
cGMP, mean ± SD (480 μg, 0 D 12 H 00 M): 7.61 ± 1.01 nmol/L
cGMP, mean ± SD (480 μg, 0 D 15 H 00 M): 7.04 ± 1.50 nmol/L
cGMP, mean ± SD (480 μg, 1 D 00 H 00 M): 6.36 ± 1.10 nmol/L
cGMP, mean ± SD (480 μg, 2 D 00 H 00 M): 6.26 ± 2.17 nmol/L
cGMP, mean ± SD (480 μg, 3 D 00 H 00 M (trough)): 6.51 ± 2.62 nmol/L
cGMP, mean ± SD (480 μg, 4 D 00 H 00 M (trough)): 6.97 ± 1.96 nmol/L
cGMP, mean ± SD (480 μg, 5 D 00 H 00 M (trough)): 7.01 ± 1.72 nmol/L
cGMP, mean ± SD (480 μg, 6 D 00 H 00 M (trough)): 7.43 ± 1.69 nmol/L
cGMP, mean ± SD (480 μg, 7 D 00 H 00 M (trough)): 7.19 ± 1.47 nmol/L
cGMP, mean ± SD (480 μg, 7 D 02 H 00 M): 9.73 ± 3.00 nmol/L
cGMP, mean ± SD (480 μg, 7 D 04 H 00 M): 10.90 ± 3.12 nmol/L
cGMP, mean ± SD (480 μg, 7 D 06 H 00 M): 11.96 ± 2.80 nmol/L
cGMP, mean ± SD (480 μg, 7 D 08 H 00 M): 10.70 ± 2.27 nmol/L
cGMP, mean ± SD (480 μg, 7 D 12 H 00 M): 9.22 ± 2.37 nmol/L
cGMP, mean ± SD (480 μg, 7 D 15 H 00 M): 8.56 ± 2.80 nmol/L
cGMP, mean ± SD (480 μg, 8 D 00 H 00 M): 7.20 ± 3.23 nmol/L
cGMP, mean ± SD (480 μg, 8 D 12 H 00 M): 6.20 ± 2.00 nmol/L
cGMP, mean ± SD (480 μg, 9 D 00 H 00 M): 5.64 ± 2.53 nmol/L
cGMP, mean ± SD (480 μg, 9 D 12 H 00 M): 6.61 ± 1.80 nmol/L
cGMP, mean ± SD (480 μg, 10 D 00 H 00 M): 5.51 ± 1.39 nmol/L
cGMP, mean ± SD (480 μg, −0 D 09 H 00 M (baseline)): 5.60 ± 1.08 nmol/L
cyclic guanosine monophosphate changes from baseline (480 μg, −0 D 09 H 00 M (pretreatment day)): 0.20 ± 1.59 nmol/L
cGMP, mean ± SD (480 μg, −0 D 12 H 00 M (baseline)): 5.62 ± 1.26 nmol/L
cyclic guanosine monophosphate changes from baseline (480 μg, −0 D 12 H 00 M (pretreatment day)): 0.22 ± 1.17 nmol/L
cGMP, mean ± SD (480 μg, −0 D 16 H 00 M (baseline)): 5.81 ± 1.09 nmol/L
cyclic guanosine monophosphate changes from baseline (480 μg, −0 D 16 H 00 M (pretreatment day)): 0.41 ± 0.96 nmol/L
cGMP, mean ± SD (480 μg, −0 D 18 H 00 M (baseline)): 5.61 ± 0.71 nmol/L
cyclic guanosine monophosphate changes from baseline (480 μg, −0 D 18 H 00 M (pretreatment day)): 0.21 ± 1.74 nmol/L
cGMP, mean ± SD (480 μg, −0 D 20 H 00 M (baseline)): 5.92 ± 0.83 nmol/L
cyclic guanosine monophosphate changes from baseline (480 μg, −0 D 20 H 00 M (pretreatment day)): 0.52 ± 0.95 nmol/L
cGMP, mean ± SD (480 μg, −0 D 22 H 00 M (baseline)): 6.57 ± 1.22 nmol/L
cyclic guanosine monophosphate changes from baseline (480 μg, −0 D 22 H 00 M (pretreatment day)): 1.17 ± 1.00 nmol/L
cGMP, mean ± SD (480 μg, −1 D 02 H 00 M (baseline)): 5.40 ± 1.41 nmol/L
cyclic guanosine monophosphate changes from baseline (1000 μg once daily inhaled, 0 D 02 H 00 M): 3.26 ± 2.04 nmol/L
cyclic guanosine monophosphate changes from baseline (1000 μg once daily inhaled, 0 D 04 H 00 M): 5.64 ± 2.54 nmol/L
cyclic guanosine monophosphate changes from baseline (1000 μg once daily inhaled, 0 D 06 H 00 M): 6.78 ± 2.79 nmol/L
cyclic guanosine monophosphate changes from baseline (1000 μg once daily inhaled, 0 D 08 H 00 M): 5.94 ± 2.65 nmol/L
cyclic guanosine monophosphate changes from baseline (1000 μg once daily inhaled, 0 D 12 H 00 M): 4.86 ± 2.91 nmol/L
cyclic guanosine monophosphate changes from baseline (1000 μg once daily inhaled, 0 D 15 H 00 M): 3.70 ± 2.59 nmol/L
cyclic guanosine monophosphate changes from baseline (1000 μg once daily inhaled, 1 D 00 H 00 M): 1.26 ± 1.98 nmol/L
cyclic guanosine monophosphate changes from baseline (1000 μg once daily inhaled, 2 D 00 H 00 M): 0.33 ± 1.99 nmol/L
cyclic guanosine monophosphate changes from baseline (1000 μg once daily inhaled, 3 D 00 H 00 M): 2.31 ± 2.68 nmol/L
cyclic guanosine monophosphate changes from baseline (1000 μg once daily inhaled, 4 D 00 H 00 M): 2.86 ± 2.63 nmol/L
cyclic guanosine monophosphate changes from baseline (1000 μg once daily inhaled, 5 D 00 H 00 M): 3.59 ± 2.51 nmol/L
cyclic guanosine monophosphate changes from baseline (1000 μg once daily inhaled, 6 D 00 H 00 M): 4.32 ± 2.82 nmol/L
cyclic guanosine monophosphate changes from baseline (1000 μg once daily inhaled, 7 D 00 H 00 M): 4.74 ± 2.98 nmol/L
cyclic guanosine monophosphate changes from baseline (1000 μg once daily inhaled, 7 D 02 H 00 M): 6.93 ± 2.99 nmol/L
cyclic guanosine monophosphate changes from baseline (1000 μg once daily inhaled, 7 D 04 H 00 M): 10.84 ± 2.91 nmol/L
cyclic guanosine monophosphate changes from baseline (1000 μg once daily inhaled, 7 D 06 H 00 M): 11.79 ± 3.70 nmol/L
cyclic guanosine monophosphate changes from baseline (1000 μg once daily inhaled, 7 D 08 H 00 M): 11.00 ± 4.58 nmol/L
cyclic guanosine monophosphate changes from baseline (1000 μg once daily inhaled, 7 D 12 H 00 M): 9.19 ± 5.26 nmol/L
cyclic guanosine monophosphate changes from baseline (1000 μg once daily inhaled, 7 D 15 H 00 M): 8.00 ± 4.41 nmol/L
cyclic guanosine monophosphate changes from baseline (1000 μg once daily inhaled, 8 D 00 H 00 M): 4.47 ± 3.81 nmol/L
cyclic guanosine monophosphate changes from baseline (1000 μg once daily inhaled, 8 D 12 H 00 M): 2.30 ± 3.05 nmol/L
cyclic guanosine monophosphate changes from baseline (1000 μg once daily inhaled, 9 D 00 H 00 M): 1.38 ± 2.59 nmol/L
cyclic guanosine monophosphate changes from baseline (1000 μg once daily inhaled, 9 D 12 H 00 M): 1.02 ± 2.24 nmol/L
cyclic guanosine monophosphate changes from baseline (1000 μg once daily inhaled, 10 D 00 H 00 M): 1.42 ± 2.87 nmol/L
cyclic guanosine monophosphate changes from baseline (1000 μg, 0 D 00 H 00 M): -0.11 ± 1.62 nmol/L
cGMP, mean ± SD (1000 μg, 0 D 00 H 00 M (baseline)): 4.91 ± 1.27 nmol/L
cGMP, mean ± SD (1000 μg, 0 D 02 H 00 M): 8.17 ± 1.07 nmol/L
cGMP, mean ± SD (1000 μg, 0 D 04 H 00 M): 10.56 ± 1.47 nmol/L
cGMP, mean ± SD (1000 μg, 0 D 06 H 00 M): 11.69 ± 1.86 nmol/L
cGMP, mean ± SD (1000 μg, 0 D 08 H 00 M): 10.86 ± 1.66 nmol/L
cGMP, mean ± SD (1000 μg, 0 D 12 H 00 M): 9.77 ± 2.11 nmol/L
cGMP, mean ± SD (1000 μg, 0 D 15 H 00 M): 8.61 ± 1.63 nmol/L
cGMP, mean ± SD (1000 μg, 1 D 00 H 00 M): 6.17 ± 1.05 nmol/L
cGMP, mean ± SD (1000 μg, 2 D 00 H 00 M): 5.24 ± 1.28 nmol/L
cGMP, mean ± SD (1000 μg, 3 D 00 H 00 M (trough)): 7.22 ± 2.04 nmol/L
cGMP, mean ± SD (1000 μg, 4 D 00 H 00 M (trough)): 7.77 ± 1.87 nmol/L
